This is an account of results in US9910031B2, “Compositions and methods for modulating c-Rel-dependent cytokine production” (Synta Pharmaceuticals Corporation, priority 2003, dated 2018).

For one assay, the system named is IL-12 p70. As to the kind of experiment: Inhibition of production of IL-12 p70 protein. Format: cell-based, human. The following applies: 1 μM Compound 1; 10 mM ASA. The protocol:
Cells were co-transfected with the vector pCMV (BD Biosciences Clontech) in which the constitutively active CMV promoter directs β-galactosidase expression for the monitoring of transfection efficiency. Luciferase and β-galactosidase activity were determined in cell extracts prepared according to the Luciferase assay system (Promega) and Luminescent n-gal Detection system (BD Biosciences Clontech). Luciferase activity was then normalized using the β-galactosidase value. […] ELISA was performed by the following method. Human IL-12 p70 (heterodimer) was assayed using ELI-PAIR kit from Cell Sciences (Norwood, Mass.), according to the manufacturer's instructions. Human IL-12 p40 was assayed using ELISA kit from Cell Sciences (Norwood, Mass.) according to the manufacturer's instructions.
The extracts obtained from this process were used in gel-shift assays using oligonucleotides containing the NFκB target sequence corresponding to the region −121 to −102 from the transcription initiation site of IL-12 p40 or a mutated NFκB binding site. […] This interaction was specific as it was competed away by an excess of unlabeled probe, but not by a mutated oligonucleotide in which two base-pairs were substituted. […] This is expected since a compound that potently blocks NFkB have a far broader cytokine inhibitory profile than Compound 1/Compound 2.

Another assay concerns NFκB. Kind of assay: Gel-shift assay of NFκB binding to the IL-12 p40 promoter site, THP-1 nuclear extracts. Format: cell-based, human. The following applies: IFN-γ-primed, SAC-stimulated THP-1; 1 μM Compound 1 or 10 mM ASA. The protocol: Nuclear extracts were prepared from IFN-γ-primed THP-1 cells that had been treated with or without SAC and incubated in the presence or absence of 1 μM Compound 1 or 10 mM ASA. Isolation of nuclear extracts was accomplished by first suspending THP-1 cells in 20 volumes of buffer A containing 10 mM KCl, 10 mM HEPES (pH 7.9), 1 mM MgCl2, 1 mM dithiothreitol (DTT), 0.1% Nonidet p40 (NP-40), and 0.5 mM phenylmethylsulfonyl fluoride (PMSF) and then homogenizing and centrifuging at 10,000 rpm at 4° C. for 5 min. Nuclear pellets were then suspended in buffer C containing 400 mM NaCl, 20 mM HEPES pH 7.9), 15 mM MgCl2, 0.2 mM EDTA, 1 mM DTT, 25% glycerol, 1 mM PMSF, and 10 μg of leupeptin, 20 μg of pepstatin, and 10 μg of antipain per ml, incubated for 30 min at 4° C., and centrifuge at 14,000 rpm for […]. The supernatants were dialyzed against buffer D containing 100 mM NaCl, 20 mM HEPES (pH 7.9), 20% glycerol, 1 mM PMSF, and 1 mM DTT.
The extracts obtained from this process were used in gel-shift assays using oligonucleotides containing the NFκB target sequence corresponding to the region −121 to −102 from the transcription initiation site of IL-12 p40 or a mutated NFκB binding site. […] This interaction was specific as it was competed away by an excess of unlabeled probe, but not by a mutated oligonucleotide in which two base-pairs were substituted. […]

Consider `CC(=O)Oc1ccccc1C(=O)O` [ASA, reference compound], for which the “percent inhibition of production of IL-12 p70 protein” value in the assay with IL-12 p70 is reported as 45%. Moreover, the “NFκB binding to p40 promoter probe (gel shift)” value in the assay on NFκB is reported as “reduced the binding significantly”.
